Results from ChEMBL document CHEMBL5154747, “Discovery of new carbonic anhydrase IX inhibitors as anticancer agents by toning the hydrophobic and hydrophilic rims of the active site to encounter the dual-tail approach” (Eur J Med Chem, 2022).

Assays:
Type in all cases: functional
Conditions in all cases: read-out: GI
SF-268 = assay: Anticancer activity against human SF-268 cells assessed as cell growth inhibition at 10 uM incubated for 48 hrs by SRB assay relative to control
UACC-62 = assay: Anticancer activity against human UACC-62 cells assessed as cell growth inhibition at 10 uM incubated for 48 hrs by SRB assay relative to control
SK-MEL-28 = assay: Anticancer activity against human SK-MEL-28 cells assessed as cell growth inhibition at 10 uM incubated for 48 hrs by SRB assay relative to control
HT-29 = assay: Anticancer activity against human HT-29 cells assessed as cell growth inhibition at 10 uM incubated for 48 hrs by SRB assay relative to control
HCC 2998 = assay: Anticancer activity against human HCC 2998 cells assessed as cell growth inhibition at 10 uM incubated for 48 hrs by SRB assay relative to control
OVCAR-8 = assay: Anticancer activity against human OVCAR-8 cells assessed as cell growth inhibition at 10 uM incubated for 48 hrs by SRB assay relative to control
OVCAR-5 = assay: Anticancer activity against human OVCAR-5 cells assessed as cell growth inhibition at 10 uM incubated for 48 hrs by SRB assay relative to control
NCI-H322M = assay: Anticancer activity against human NCI-H322M cells assessed as cell growth inhibition at 10 uM incubated for 48 hrs by SRB assay relative to control
HOP-62 = assay: Anticancer activity against human HOP-62 cells assessed as cell growth inhibition at 10 uM incubated for 48 hrs by SRB assay relative to control
MDA-MB-468 = assay: Anticancer activity against human MDA-MB-468 cells assessed as cell growth inhibition at 10 uM incubated for 48 hrs by SRB assay relative to control
LOX IMVI = assay: Anticancer activity against human LOX IMVI cells assessed as cell growth inhibition at 10 uM incubated for 48 hrs by SRB assay relative to control
SR = assay: Anticancer activity against human SR cells assessed as cell growth inhibition at 10 uM incubated for 48 hrs by SRB assay relative to control
U-251 = assay: Anticancer activity against human U-251 cells assessed as cell growth inhibition at 10 uM incubated for 48 hrs by SRB assay relative to control
SK-OV-3 = assay: Anticancer activity against human SK-OV-3 cells assessed as cell growth inhibition at 10 uM incubated for 48 hrs by SRB assay relative to control
NCI-H23 = assay: Anticancer activity against human NCI-H23 cells assessed as cell growth inhibition at 10 uM incubated for 48 hrs by SRB assay relative to control
MDA-MB-435 = assay: Anticancer activity against human MDA-MB-435 cells assessed as cell growth inhibition at 10 uM incubated for 48 hrs by SRB assay relative to control
SNB-75 = assay: Anticancer activity against human SNB-75 cells assessed as cell growth inhibition at 10 uM incubated for 48 hrs by SRB assay relative to control
CCRF-CEM = assay: Anticancer activity against human CCRF-CEM cells assessed as cell growth inhibition at 10 uM incubated for 48 hrs by SRB assay relative to control
NCI-H226 = assay: Anticancer activity against human NCI-H226 cells assessed as cell growth inhibition at 10 uM incubated for 48 hrs by SRB assay relative to control
BT-549 = assay: Anticancer activity against human BT-549 cells assessed as cell growth inhibition at 10 uM incubated for 48 hrs by SRB assay relative to control
DU-145 = assay: Anticancer activity against human DU-145 cells assessed as cell growth inhibition at 10 uM incubated for 48 hrs by SRB assay relative to control
PC-3 = assay: Anticancer activity against human PC-3 cells assessed as cell growth inhibition at 10 uM incubated for 48 hrs by SRB assay relative to control
HCT-15 = assay: Anticancer activity against human HCT-15 cells assessed as cell growth inhibition at 10 uM incubated for 48 hrs by SRB assay relative to control
SK-MEL-2 = assay: Anticancer activity against human SK-MEL-2 cells assessed as cell growth inhibition at 10 uM incubated for 48 hrs by SRB assay relative to control
ACHN = assay: Anticancer activity against human ACHN cells assessed as cell growth inhibition at 10 uM incubated for 48 hrs by SRB assay relative to control
K562 = assay: Anticancer activity against human K562 cells assessed as cell growth inhibition at 10 uM incubated for 48 hrs by SRB assay relative to control
RPMI-8226 = assay: Anticancer activity against human RPMI-8226 cells assessed as cell growth inhibition at 10 uM incubated for 48 hrs by SRB assay relative to control
MOLT-4 = assay: Anticancer activity against human MOLT-4 cells assessed as cell growth inhibition at 10 uM incubated for 48 hrs by SRB assay relative to control
T47D = assay: Anticancer activity against human T47D cells assessed as cell growth inhibition at 10 uM incubated for 48 hrs by SRB assay relative to control
KM12 = assay: Anticancer activity against human KM12 cells assessed as cell growth inhibition at 10 uM incubated for 48 hrs by SRB assay relative to control
OVCAR-3 = assay: Anticancer activity against human OVCAR-3 cells assessed as cell growth inhibition at 10 uM incubated for 48 hrs by SRB assay relative to control
COLO 205 = assay: Anticancer activity against human COLO 205 cells assessed as cell growth inhibition at 10 uM incubated for 48 hrs by SRB assay relative to control
A498 = assay: Anticancer activity against human A498 cells assessed as cell growth inhibition at 10 uM incubated for 48 hrs by SRB assay relative to control
NCI-H522 = assay: Anticancer activity against human NCI-H522 cells assessed as cell growth inhibition at 10 uM incubated for 48 hrs by SRB assay relative to control
EKVX = assay: Anticancer activity against human EKVX cells assessed as cell growth inhibition at 10 uM incubated for 48 hrs by SRB assay relative to control
RXF 393 = assay: Anticancer activity against human RXF 393 cells assessed as cell growth inhibition at 10 uM incubated for 48 hrs by SRB assay relative to control
NCI/ADR-RES = assay: Anticancer activity against human NCI/ADR-RES cells assessed as cell growth inhibition at 10 uM incubated for 48 hrs by SRB assay relative to control
SW-620 = assay: Anticancer activity against human SW-620 cells assessed as cell growth inhibition at 10 uM incubated for 48 hrs by SRB assay relative to control
NCI-H460 = assay: Anticancer activity against human NCI-H460 cells assessed as cell growth inhibition at 10 uM incubated for 48 hrs by SRB assay relative to control
SF-539 = assay: Anticancer activity against human SF-539 cells assessed as cell growth inhibition at 10 uM incubated for 48 hrs by SRB assay relative to control

SMILES	inhibition of growth at 10 µM (SF-268)	inhibition of growth at 10 µM (UACC-62)	inhibition of growth at 10 µM (SK-MEL-28)	inhibition of growth at 10 µM (HT-29)	inhibition of growth at 10 µM (HCC 2998)	inhibition of growth at 10 µM (OVCAR-8)	inhibition of growth at 10 µM (OVCAR-5)	inhibition of growth at 10 µM (NCI-H322M)	inhibition of growth at 10 µM (HOP-62)	inhibition of growth at 10 µM (MDA-MB-468)	inhibition of growth at 10 µM (LOX IMVI)	inhibition of growth at 10 µM (SR)	inhibition of growth at 10 µM (U-251)	inhibition of growth at 10 µM (SK-OV-3)	inhibition of growth at 10 µM (NCI-H23)	inhibition of growth at 10 µM (MDA-MB-435)	inhibition of growth at 10 µM (SNB-75)	inhibition of growth at 10 µM (CCRF-CEM)	inhibition of growth at 10 µM (NCI-H226)	inhibition of growth at 10 µM (BT-549)	further results
NNc1nc(Nc2ccccc2)nc(Nc2ccc(S(N)(=O)=O)cc2)n1	< 10%	< 10%	< 10%	< 10%	< 10%	< 10%	< 10%	< 10%	< 10%	< 10%	< 10%	32%	< 10%	< 10%	< 10%	< 10%	< 10%	< 10%	< 10%	< 10%	inhibition of growth at 10 µM (DU-145): < 10%; inhibition of growth at 10 µM (PC-3): < 10%; inhibition of growth at 10 µM (HCT-15): < 10%; inhibition of growth at 10 µM (SK-MEL-2): < 10%; inhibition of growth at 10 µM (ACHN): < 10%; inhibition of growth at 10 µM (K562): < 10%; inhibition of growth at 10 µM (RPMI-8226): < 10%; inhibition of growth at 10 µM (MOLT-4): 81%; inhibition of growth at 10 µM (T47D): < 10%; inhibition of growth at 10 µM (KM12): < 10%; inhibition of growth at 10 µM (OVCAR-3): < 10%; inhibition of growth at 10 µM (COLO 205): < 10%; inhibition of growth at 10 µM (A498): < 10%; inhibition of growth at 10 µM (NCI-H522): < 10%; inhibition of growth at 10 µM (EKVX): < 10%; inhibition of growth at 10 µM (RXF 393): < 10%; inhibition of growth at 10 µM (NCI/ADR-RES): < 10%; inhibition of growth at 10 µM (SW-620): < 10%; inhibition of growth at 10 µM (NCI-H460): < 10%; inhibition of growth at 10 µM (SF-539): < 10%
Cc1nn(-c2ccccc2)cc1/C=N/Nc1nc(Nc2ccccc2)nc(Nc2ccc(S(N)(=O)=O)cc2)n1	107%	127%	113%	94%	117%	81%	113%	90%	90%	137%	125%	66%	122%	49%	114%	131%	55%	91%	159%	78%	inhibition of growth at 10 µM (DU-145): 90%; inhibition of growth at 10 µM (PC-3): 98%; inhibition of growth at 10 µM (HCT-15): 92%; inhibition of growth at 10 µM (SK-MEL-2): 45%; inhibition of growth at 10 µM (ACHN): 100%; inhibition of growth at 10 µM (K562): 90%; inhibition of growth at 10 µM (RPMI-8226): 123%; inhibition of growth at 10 µM (MOLT-4): 93%; inhibition of growth at 10 µM (T47D): 81%; inhibition of growth at 10 µM (KM12): 90%; inhibition of growth at 10 µM (OVCAR-3): 131%; inhibition of growth at 10 µM (COLO 205): 122%; inhibition of growth at 10 µM (A498): 130%; inhibition of growth at 10 µM (NCI-H522): 100%; inhibition of growth at 10 µM (EKVX): 81%; inhibition of growth at 10 µM (RXF 393): 120%; inhibition of growth at 10 µM (NCI/ADR-RES): 23%; inhibition of growth at 10 µM (SW-620): 114%; inhibition of growth at 10 µM (NCI-H460): 135%; inhibition of growth at 10 µM (SF-539): 28%
